The source of these data is patent publication US12139492B2 (Endotarget Inc., priority 2021, dated 2024).

pIC50: −log10 of the molar value. Where two headings read alike, the source gives them in different places.

The subject of assay [1] is JeKo-1 cells. Put plainly: Antiproliferative effect, MTS cell viability assay, JeKo-1 cells. The format is cell-based. The note with it: JeKo-1 mantle cell lymphoma cells, read-out: IC50 (anti-proliferation) JeKO-1 cells. The procedure, abridged:
(§1)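 Mino and JeKo-1 mantle B-cell lymphoma lines were exposed to compound at 0, 0.001, 0.01, 0.1, 1 and 10 μM for 72 h. Viability was read by MTS reduction to formazan, measured as absorbance at 490 nm.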
In general terms: Tetrazolium dyes change colour on reduction, which living cells bring about.

Assay [2] relates to Mino cells. Put plainly: Antiproliferative effect, MTS cell viability assay, Mino cells. The format is cell-based. To be noted: Mino mantle cell lymphoma cells, read-out: IC50 (anti-proliferation) Mino cells. The procedure, abridged:
as §1

In assay [3] the test system is primary human CLL cell CTG-3754. Briefly: Ex vivo cell inhibition, Cell Titer Glo viability, primary CLL cell CTG-3754. To be noted: 10 nM to 50 μM, 6 days. The format is cell-based. How it is done: (§2) Primary human Human Chronic Lymphocytic Leukemia cell lines were used to measure ex vivo cell inhibition by exemplary compounds. The cells were incubated with test compounds at a dose range of 10 nM to 50 μM for 6 days. Cell Titer Glo data were gathered for cell viability evaluation.
A general note: ATP-based viability assays read luminescence as a measure of living cells.

Assay [4] deals with T1, BTK (Homo sapiens, UniProt Q06187). Briefly: BTK degradation, DC50 and Dmax of Table 1 (cell line not given). The format is cell-based. More on the design: endogenous in cells. To be noted: for DC50: concentration giving 50% reduction of BTK expression level.
T1 sequence (Q06187 whole entry): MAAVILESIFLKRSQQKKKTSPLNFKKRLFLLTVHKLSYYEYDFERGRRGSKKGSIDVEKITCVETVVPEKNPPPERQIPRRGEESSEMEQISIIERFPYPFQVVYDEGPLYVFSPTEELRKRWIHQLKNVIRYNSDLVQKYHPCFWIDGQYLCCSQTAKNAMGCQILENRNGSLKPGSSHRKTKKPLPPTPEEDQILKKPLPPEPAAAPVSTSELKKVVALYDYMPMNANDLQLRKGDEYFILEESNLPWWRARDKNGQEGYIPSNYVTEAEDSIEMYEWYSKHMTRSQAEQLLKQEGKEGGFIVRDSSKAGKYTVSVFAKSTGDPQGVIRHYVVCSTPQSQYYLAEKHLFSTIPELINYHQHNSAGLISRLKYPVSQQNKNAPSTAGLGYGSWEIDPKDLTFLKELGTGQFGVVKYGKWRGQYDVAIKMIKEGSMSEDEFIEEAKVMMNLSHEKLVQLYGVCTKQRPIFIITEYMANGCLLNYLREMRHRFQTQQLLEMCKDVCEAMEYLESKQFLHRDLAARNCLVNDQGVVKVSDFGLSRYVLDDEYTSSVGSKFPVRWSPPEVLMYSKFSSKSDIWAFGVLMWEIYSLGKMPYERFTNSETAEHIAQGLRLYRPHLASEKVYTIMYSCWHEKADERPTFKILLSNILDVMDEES
Assay [5] relates to primary human CLL cell CTG-3763. Briefly: Ex vivo cell inhibition, Cell Titer Glo viability, primary CLL cell CTG-3763. The format is cell-based. To be noted: 10 nM to 50 μM, 6 days. How it is done:
as §2

The target of assay [6] is T1, BTK. Briefly: Degradation of BTK protein in Namalwa cells (Western blot; DC50, Dmax). To be noted: for degradation of BTK protein: various concentrations, 24 hours; for DC50: cell line not given. (In general: A western blot detects proteins with antibodies after separation by electrophoresis.)
For assay [7], the target named is T1, BTK. Put plainly: Degradation of BTK protein in JeKo-1 cells (Western blot; DC50, Dmax). The note with it: JeKo-1 mantle cell lymphoma cells, various concentrations, 24 hours.
Experimental: (§3) Namalwa, JeKo-1, or Mino cells were plated in 24-well plates at a density of 10^5 cells/well. Media containing various drug concentrations were added on the day following plating (day 0) and allowed to incubate for 24 hours for Western blot. Media with the tested compound was changed every other day. […] Media were removed and dishes were washed with 1×DPBS. Lysates were made by adding 150 μL of complete lysis solution and scraping cells into a 1.5 mL microcentrifuge tube. Lysates were placed on a rotisserie at 4° C. for 30 min and then spun at 4° C. at 12000 rcf for 10 min. Supernatants were assayed for protein content, snap-frozen, and stored a −80° C. if not run immediately. Then 50 μg of protein was subjected to Western blot protocol. […] They were then imaged on a LICOR infrared scanner.
Assay [8] deals with T1, BTK. Put plainly: Degradation of BTK protein in Mino cells (Western blot; DC50, Dmax). To be noted: Mino mantle cell lymphoma cells, various concentrations, 24 hours.
Experimental: as §3
[9] abbreviates: Namalwa B lymphocyte cells, Western blot.
[10] abbreviates: read-out: DC50 (BTK degradation), concentration giving 50% reduction of BTK expression level.
Where [11] appears, read: read-out: Dmax (BTK degradation).

The Dmax is the largest share of the target that was removed. The DC50 is the midpoint of the concentration-degradation curve. With `Nc1ncnc2c1c(-c1ccc(Oc3ccccc3)cc1)nn2C1CCN(CCOCCOCCN2CCN(c3ccc4c(c3)C(=O)N(C3CCC(=O)NC3=O)C4=O)CC2)CC1` (stereo not shown) [Compound 1], the pIC50 was 5.00 to 6.00 in assay [1] (Homo sapiens) and 5.00 to 6.00 in assay [2] (Homo sapiens, MINO). For the same compound, the “effect on primary human CLL cell viability” value in assay [3] and in assay [5] was “dose-dependent effect” in each case. Also, the Dmax in assay [4] was > 90%. Besides, the DC50 in assay [4] was 10 to 50 nM. Also, in assay [6] (setting [9]), the “degradation of BTK protein” value is given as “dose-dependent degradation”.

Regarding `Nc1ncnc2c1c(-c1ccc(Oc3ccccc3)cc1)nn2[C@@H]1CCCN(CC2CCN(C(=O)N3CCC(N4CCN(c5ccc6c(c5)C(=O)N(C5CCC(=O)NC5=O)C6=O)CC4)CC3)CC2)C1` (stereo partly drawn) [Compound 27, 5-(4-(1-(4-(((R)-3-(4-amino-3-(4-phenoxyphenyl)-1H-pyrazolo(3,4-d)pyrimidin-1-yl)piperidin-1-yl)methyl)piperidine-1-carbonyl)piperidin-4-yl)piperazin-1-yl)-2-(2,6-dioxopiperidin-3-yl)isoindoline-1,3-dione], the “degradation of BTK protein” value in assay [7], in assay [6] (setting [9]) and in assay [8] was “dose-dependent degradation” each time. Besides, the pIC50 in assay [1] (Homo sapiens) is > 6.00; in assay [2] (Homo sapiens, MINO), 5.00 to 6.00. Besides, the Dmax in assay [4] was > 90%. In addition, the DC50 in assay [4] was < 10 nM. In addition, the “degradation of BTK protein at 10^−6 M” value in assay [6] (Namalwa B lymphocyte cells, 10^−6 M, Western blot) was “degradation”.

Regarding `Nc1ncnc2c1c(-c1ccc(Oc3ccccc3)cc1)nn2[C@@H]1CCCN(CC2CCN(C(=O)N3CCC(N4CCN(c5ccc6c(c5)CN(C5CCC(=O)NC5=O)C6=O)CC4)CC3)CC2)C1` (stereo partly drawn) [Compound 28, 3-(5-(4-(1-(4-(((R)-3-(4-amino-3-(4-phenoxyphenyl)-1H-pyrazolo(3,4-d)pyrimidin-1-yl)piperidin-1-yl)methyl)piperidine-1-carbonyl)piperidin-4-yl)piperazin-1-yl)-1-oxoisoindolin-2-yl)piperidine-2,6-dione], the “degradation of BTK protein” value in assay [7], in assay [6] (setting [9]) and in assay [8] was “dose-dependent degradation” each time. The pIC50 was 5.00 to 6.00 in assay [1] (Homo sapiens) and > 6.00 in assay [2] (Homo sapiens). Also, the Dmax in assay [4] was > 90%. In addition, the DC50 in assay [4] lay within 10 to 50 nM.

On to `Nc1ncnc2c1c(-c1ccc(Oc3ccccc3)cc1)nn2[C@@H]1CCCN(C(=O)N2CCC(N3CCN(c4ccc5c(c4)CN(C4CCC(=O)NC4=O)C5=O)CC3)CC2)C1` (stereo partly drawn) [Compound 52, 3-(5-(4-(1-((R)-3-(4-amino-3-(4-phenoxyphenyl)-1H-pyrazolo(3,4-d)pyrimidin-1-yl)piperidine-1-carbonyl)piperidin-4-yl)piperazin-1-yl)-1-oxoisoindolin-2-yl)piperidine-2,6-dione], for which the “degradation of BTK protein” value in assay [7], in assay [6] (setting [9]) and in assay [8] was “dose-dependent degradation” each time. For the same compound, the pIC50 in assay [1] (Homo sapiens) was > 6.00; in assay [2] (Homo sapiens, MINO), > 6.00. Besides, the Dmax in assay [4] is > 90%. Further, the DC50 in assay [4] is < 10 nM.

On to `Nc1ncnc2c1c(-c1ccc(Oc3ccccc3)cc1)nn2[C@@H]1CCCN(C2CCN(C(=O)N3CCC(N4CCN(c5ccc6c(c5)CN(C5CCC(=O)NC5=O)C6=O)CC4)CC3)CC2)C1` (stereo partly drawn) [Compound 162, 3-(5-(4-(1-((R)-3-(4-amino-3-(4-phenoxyphenyl)-1H-pyrazolo(3,4-d)pyrimidin-1-yl)-(1,4′-bipiperidine)-1′-carbonyl)piperidin-4-yl)piperazin-1-yl)-1-oxoisoindolin-2-yl)piperidine-2,6-dione], for which the “degradation of BTK protein” value in assay [7], in assay [6] (setting [9]) and in assay [8] was “dose-dependent degradation” throughout. Further, the pIC50 in assay [1] (Homo sapiens) and in assay [2] (Homo sapiens) was > 6.00 each time. The Dmax in assay [4] was > 90%. Besides, the DC50 in assay [4] was < 10 nM.

As to `Nc1ncnc2c1c(-c1ccc(Oc3ccccc3)cc1)nn2C1CCN(C2CCN(CC3CCN(c4ccc5c(c4)C(=O)N(C4CCC(=O)NC4=O)C5=O)CC3)CC2)CC1` (stereo not shown) [Compound 213, 5-(4-((4-(4-amino-3-(4-phenoxyphenyl)-1H-pyrazolo(3,4-d)pyrimidin-1-yl)-(1,4′-bipiperidin)-1′-yl)methyl)piperidin-1-yl)-2-(2,6-dioxopiperidin-3-yl)isoindoline-1,3-dione], the “degradation of BTK protein” value in assay [7], in assay [6] (setting [9]) and in assay [8] was “dose-dependent degradation” each time. Further, the pIC50 in assay [1] (Homo sapiens) is > 6.00; in assay [2] (Homo sapiens, MINO) it was > 6.00. Also, the Dmax in assay [6] is > 90%. Further, in assay [6] (BTK degradation), the DC50 was < 10 nM.

`Nc1ncnc2c1c(-c1ccc(Oc3ccccc3)cc1)nn2C1CCN(CCOCCOCCN2CCC(c3ccc4c(c3)CN(C3CCC(=O)NC3=O)C4=O)CC2)CC1` (stereo not shown) [Compound 419, 3-(5-(1-(2-(2-(2-(4-(4-amino-3-(4-phenoxyphenyl)-1H-pyrazolo[3,4-d]pyrimidin-1-yl)piperidin-1-yl)ethoxy)ethoxy)ethyl)piperidin-4-yl)-1-oxoisoindolin-2-yl)piperidine-2,6-dione]: the “degradation of BTK protein” value in assay [7], in assay [6] (setting [9]) and in assay [8] was “dose-dependent degradation” in each case. In addition, the pIC50 in assay [1] and in assay [2] was 5.00 to 6.00 each time. The DC50 in assay [6] (setting [10]) is < 10 nM. Also, the Dmax in assay [6] (setting [11]) was > 90%.

Turning to `Nc1ncnc2c1c(-c1ccc(Oc3ccccc3)cc1)nn2C1CCN(CC2CCN(/C=C/C(=O)CN3CCN(c4ccc5c(c4)CN(C4CCC(=O)NC4=O)C5=O)CC3)CC2)CC1` (stereo not shown) [Compound 420, (E)-3-(5-(4-(4-(4-((4-(4-amino-3-(4-phenoxyphenyl)-1H-pyrazolo[3,4-d]pyrimidin-1-yl)piperidin-1-yl)methyl)piperidin-1-yl)-2-oxobut-3-en-1-yl)piperazin-1-yl)-1-oxoisoindolin-2-yl)piperidine-2,6-dione], the “degradation of BTK protein” value in assay [7], in assay [6] (setting [9]) and in assay [8] was “dose-dependent degradation” in each case. In addition, the pIC50 in assay [1] (Homo sapiens) was 5.00 to 6.00; in assay [2] (Homo sapiens, MINO), 5.00 to 6.00. The DC50 in assay [6] (setting [10]) was < 10 nM. Also, the Dmax in assay [6] (setting [11]) is > 90%.

Turning to `Nc1ncnc2c1c(-c1ccc(Oc3ccccc3)cc1)nn2C1CCN(CC2CN(CC3CCN(c4ccc5c(c4)C(=O)N(C4CCC(=O)NC4=O)C5=O)CC3)C2)CC1` (stereo not shown) [Compound 439, 5-(4-((3-((4-(4-amino-3-(4-phenoxyphenyl)-1H-pyrazolo(3,4-d)pyrimidin-1-yl)piperidin-1-yl)methyl)azetidin-1-yl)methyl)piperidin-1-yl)-2-(2,6-dioxopiperidin-3-yl)isoindoline-1,3-dione], the “degradation of BTK protein” value in assay [7], in assay [6] (setting [9]) and in assay [8] was “dose-dependent degradation” in each case. The pIC50 in assay [1] (Homo sapiens) is 5.00 to 6.00; in assay [2] (Homo sapiens, MINO) it was > 6.00. Further, the DC50 in assay [6] (setting [10]) was < 10 nM. Moreover, in assay [6] (setting [11]), the Dmax was > 90%.
